Experiment [1] concerns HL-60. Briefly: Induction of apoptosis in human HL60 cells assessed as nuclear shrinkage and fragmentation at 1 nM after 12 hrs using rhodamine-phalloidin staining by fluorescence microscopy. It counts as functional, cell-based.
Experiment [2] relates to HL-60. The experiment in a line: Induction of apoptosis in human HL60 cells assessed as disruption and aggregation of actin filaments at 1 nM after 12 hrs using rhodamine-phalloidin staining by fluorescence microscopy. Format: functional, cell-based.
Experiment [3] can be described thus: Induction of F-actin (unknown origin) polymerization after 1 hr by spectrofluorometric analysis. Further details: species or system Homo sapiens.
The test system of experiment [4] is HL-60. The experiment in a line: Induction of apoptosis in human HL60 cells assessed as activation of caspase-3 at 0.1 to 1 nM after 18 hrs by spectrophotometric analysis. Format: functional, cell-based.
Experiment [5] has as its system HeLa S3. The experiment in a line: Induction of apoptosis in human HeLaS3 cells assessed as DNA fragmentation after 24 hrs by agarose gel electrophoresis. Format: functional, cell-based.
Experiment [6] has as its system HL-60. Briefly: Induction of apoptosis in human HL60 cells assessed as DNA fragmentation after 24 hrs by agarose gel electrophoresis. Format: functional, cell-based.
The test system of experiment [7] is HeLa S3. Briefly: Cytotoxicity against human HeLaS3 cells after 48 hrs by trypan blue dye exclusion assay in presence of Z-VAD-FMK. It counts as functional, cell-based.
Experiment [8] has as its system HeLa S3. The experiment in a line: Cytotoxicity against human HeLaS3 cells after 48 hrs by trypan blue dye exclusion assay. It counts as functional, cell-based.
A short description of experiment [9]: Cytotoxicity against human HeLaS3 cells after 72 hrs by MTT assay. It counts as functional, cell-based. As to conditions: HeLa S3, 72 h. On the technique in general: Formazan colour is commonly taken as a measure of viable cells.
For experiment [10], the system named is HL-60. The experiment in a line: Cytotoxicity against human HL60 cells after 24 hrs by trypan blue dye exclusion assay. It counts as functional, cell-based.
Experiment [11] has as its system HL-60. Briefly: Cytotoxicity against human HL60 cells after 24 hrs by trypan blue dye exclusion assay in presence of Z-VAD-FMK. Format: functional, cell-based.
The subject of experiment [12] is HL-60. The experiment in a line: Induction of apoptosis in human HL60 cells assessed as nuclear shrinkage and fragmentation at 1 nM after 12 hrs using rhodamine-phalloidin staining by fluorescence microscopy in presence of Z-VAD-FMK. Format: functional, cell-based.
Experiment [13] has as its system HL-60. Briefly: Induction of apoptosis in human HL60 cells assessed as disruption and aggregation of actin filaments at 0.1 nM after 12 hrs using rhodamine-phalloidin staining by fluorescence microscopy. It counts as functional, cell-based.
For experiment [14], the system named is HL-60. The experiment in a line: Cytotoxicity against human HL60 cells after 72 hrs by MTT assay. The settings on record: HL-60, 72 h. Format: functional, cell-based.
In experiment [15] the test system is HL-60. Briefly: Induction of apoptosis in human HL60 cells assessed as nuclear shrinkage and fragmentation at 30 uM after 12 hrs using rhodamine-phalloidin staining by fluorescence microscopy. Format: functional, cell-based.
The subject of experiment [16] is HL-60. The experiment in a line: Induction of apoptosis in human HL60 cells assessed as disruption and aggregation of actin filaments at 30 uM after 12 hrs using rhodamine-phalloidin staining by fluorescence microscopy. Format: functional, cell-based.
Experiment [17] deals with HL-60. The experiment in a line: Induction of apoptosis in human HL60 cells assessed as activation of caspase-3 at 10 to 30 uM after 18 hrs by spectrophotometric analysis. Format: functional, cell-based.
Experiment [18] concerns HL-60. The experiment in a line: Induction of apoptosis in human HL60 cells assessed as nuclear shrinkage and fragmentation at 30 uM after 12 hrs using rhodamine-phalloidin staining by fluorescence microscopy in presence of Z-VAD-FMK. It counts as functional, cell-based.

Molecules are shown by their SMILES. Active and inactive are the calls of the source. The calls are words filed in the database; no cut-off is given here.

By IC50 is commonly meant the concentration that gives 50% inhibition. High values mean lower potency, low ones higher potency. Regarding `COCC(C(=O)O[C@@H]1C/C=C/C=C/C(=O)O[C@H]([C@@H](C)[C@@H](O)[C@@H](C)CC[C@@H](OC(=O)C(C)N(C)C)[C@H](C)[C@H](OC(C)=O)[C@H](C)/C=C/N(C)C=O)C/C=C/[C@H](OC)C[C@H](C)C/C=C(\C)[C@@H](OC)CC[C@@H](C)[C@@H](O)[C@@H]1C)N(C)C` (some centres not stated) [APLYRONINE A], the outcome in the experiment with HL-60 [1], with HL-60 [2], with HL-60 [4], in the experiment on HeLa S3 [5], with HL-60 [6] and in the experiment on HL-60 [13] was Active. Moreover, the values for the IC50 in [3] and in [9] were 1.6 µM and 0.00029 µM, respectively. Further, the outcome in the experiment with HeLa S3 [7], with HL-60 [11] and in the experiment on HL-60 [12] was inactive. The Activity entry in the experiment on HeLa S3 [8] and in the experiment with HL-60 [10] was “Dose-dependent effect” in each case.

As to `CC(=O)O[C@@H]([C@@H](C)[C@@H](/C=C/c1ccccc1)OC(=O)[C@H](C)N(C)C)[C@H](C)/C=C/N(C)C=O`, the figures for the IC50 (in [3]; with HL-60 [14]) were 47 µM and 27.5 µM, respectively.

In the case of `CC(=O)O[C@@H]([C@@H](C)[C@@H](/C=C/CCc1ccccc1)OC(=O)[C@H](C)N(C)C)[C@H](C)/C=C/N(C)C=O`, the IC50 in [3] was 85 µM; in the experiment with HL-60 [14], 53 µM.

With `C/C=C/[C@@H](OC(=O)[C@H](C)N(C)C)[C@H](C)[C@H](OC(C)=O)[C@H](C)/C=C/N(C)C=O`, the IC50 in experiment [3] was determined as 210 µM; in the experiment with HL-60 [14], 240 µM.

For the molecule `CC(=O)O[C@@H]([C@@H](C)[C@@H](/C=C/CCCCc1ccccc1)OC(=O)[C@H](C)N(C)C)[C@H](C)/C=C/N(C)C=O`, the result in the experiment with HL-60 [15], in the experiment on HL-60 [16], with HL-60 [17], with HL-60 [6] and with HL-60 [10] was Active. In addition, the values for the IC50 (in experiment [3]; with HL-60 [14]) were 21 µM and 12.7 µM, respectively. The result with HL-60 [11] and in the experiment with HL-60 [18] was inactive.

As for `COC[C@@H](OC)C(=O)O[C@H](CC[C@H](C)[C@@H](C[C@@H]1OC(=O)C[C@@H](O)C/C=C/C(=O)[C@H](C)[C@H](OC)c2coc(n2)-c2coc(n2)-c2coc(n2)/C=C/C[C@H](OC)[C@H]1C)OC)[C@H](C)[C@H](OC(C)=O)[C@H](C)/C=C/N(C)C=O` [MYCALOLIDE B], the IC50 in experiment [3] was determined as 1.7 µM; in experiment [9], 0.052 µM; in the experiment on HL-60 [14], 0.0047 µM. Besides, the result with HeLa S3 [5] and with HL-60 [6] was Active. Besides, the outcome with HeLa S3 [7] and with HL-60 [11] was inactive. In addition, the Activity result in the experiment with HeLa S3 [8] and in the experiment on HL-60 [10] was “Dose-dependent effect” each time.

The values above are taken from ChEMBL document CHEMBL2331136, “Apoptosis-inducing activity of the actin-depolymerizing agent aplyronine A and its side-chain derivatives” (Bioorg Med Chem Lett, 2013).
